Source: ChEMBL document CHEMBL5727242, “N-Methylbenzimidazoles as mIDH1 inhibitors” (2019)

Assay: Biological Assay: Mutant IDH1 R132H Biochemical Assay mIDH1 catalyzes the NADPH-dependent reduction of alpha-ketoglutarate (a-KG) to (2R)-2-hydroxyglutarate (2-HG). NADPH consumption was measured by luminescent readout.The biochemical reactions were performed at 32° C. in 384-well plates using a reaction volume of 41 μL and the following assay buffer conditions: 50 mM Tris pH 7.5, 100 mM NaCl, 20 mM MgCl2, 0.05% BSA, 0.01% Brij, 1 μM NADPH, and 250 μM α-KG. The IDH1 R132H enzyme was used in a final concentration of 1.5 nM. Test compounds were used in a concentration range between 0.002 and 10 μM. The final DMSO concentration was 2.4%.The reaction was incubated for 30 minutes, then 40 μL of detection mix (0.75 μg/ml Luciferase, 0.02 U/ml Oxidoreductase, 4 μg/mL FMN, 2 μL/ml decanal/ethanol, 50 mM Tris pH 7.5, 0.5% Glycerin, 0.01% Tween-20, 0.05% BSA) was added. Luminescence was measured on a luminescent reader (10 seconds measuring time, 1 second integration period, 30% sensitivity). The decrease in luminescence is proportional to mIDH1 activity. IC50 values are determined by interpolation from plots of relative luminescence versus inhibitor concentration.

IC50: 38 nM
SMILES: COC(=O)c1ccc2c(c1)nc(Nc1ccc(OC(F)(F)F)cc1)n2[C@@H]1C[C@H](C)CC[C@H]1C(C)C
